Source: patent US20230085307A1, “PYRIDAZINONE COMPOUND AND HERBICIDE” (NISSAN CHEMICAL CORPORATION, priority 2019, published 2023)

Columns and labels:
blackgrass = assay: Test Example 5: herbicidal effect by foliage application, plastic box (Table 20, symbol J); assay type: in vivo, blackgrass (Alopecurus myosuroides); settings: foliage application, AAH 320 g/ha, evaluated three weeks after application
In short: (§1)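 Sow seeds spot-wise in sterilized diluvial soil; cover with ~1.5 cm soil. Grow 14 days in greenhouse, 25° C. to 30° C. Spray foliage with emulsion diluted to predetermined amount. Rate effect after 3 weeks.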

green foxtail = assay: Test Example 5: herbicidal effect by foliage application, plastic box (Table 20, symbol G); assay type: in vivo, green foxtail (Setaria viridis); settings: foliage application, AAH 320 g/ha, evaluated three weeks after application
In short: as §1

barnyard grass = assay: Test Example 5: herbicidal effect by foliage application, plastic box (Table 20, symbol H); assay type: in vivo, barnyard grass (Echinochloa crus-galli); settings: foliage application, AAH 320 g/ha, evaluated three weeks after application
In short: as §1

wild oat [1] = assay: Test Example 4: herbicidal effect by soil treatment (Table 19, symbol I); assay type: in vivo, wild oat (Avena fatua); settings: amount of applied herbicide 320 g/ha
In short: (§2)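 Applied as a water-diluted emulsion, the compound was sprayed onto soil covering newly sown seeds. Evaluation came three weeks after application, in a greenhouse held at 25° C. to 30° C.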

late watergrass [2] = assay: Test Example 1: herbicidal activity, application before weed generation under submerged conditions (Table 16, symbol A); assay type: in vivo, late watergrass (Echinochloa oryzicola); settings: 320 g/ha applied herbicide
In short: (§3)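 Alluvial soil was flooded to 4 cm depth, weed seeds were sown mixed and 2.5-leaf rice seedlings were transplanted. On sowing day, the compound's emulsion, diluted in water to a set dose, was applied to the water surface. Plants grew at 25–30 °C and were scored 0–5 after three weeks.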

chickweed = assay: Test Example 4: herbicidal effect by soil treatment (Table 19, symbol P); assay type: in vivo, common chickweed (Stellaria media); settings: amount of applied herbicide 320 g/ha
In short: as §2

wild oat [3] = assay: Test Example 5: herbicidal effect by foliage application, plastic box (Table 20, symbol I); assay type: in vivo, wild oat (Avena fatua); settings: foliage application, AAH 320 g/ha, evaluated three weeks after application
In short: as §1

windgrass = assay: Test Example 4: herbicidal effect by soil treatment (Table 19, symbol L); assay type: in vivo, windgrass (Apera spica-venti); settings: amount of applied herbicide 320 g/ha
In short: as §2

Italian ryegrass [4] = assay: Test Example 4: herbicidal effect by soil treatment (Table 19, symbol K); assay type: in vivo, Italian ryegrass (Lolium multiflorum); settings: amount of applied herbicide 320 g/ha
In short: as §2

late watergrass [5] = assay: Test Example 2: herbicidal activity, application during weed generation under submerged conditions (Table 17, symbol A); assay type: in vivo, late watergrass (Echinochloa oryzicola); settings: AAH 320 g/ha; application during weed generation, submerged conditions
In short: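 In this pot test, flooded alluvial soil (water depth 4 cm) holds all three species sown as a mixture. Once seedlings have one to two leaves, the compound's emulsion, thinned with water to the intended dose, is poured on the water; grading follows after three weeks on the earlier criteria.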

lambsquarters = assay: Test Example 4: herbicidal effect by soil treatment (Table 19, symbol O); assay type: in vivo, lambsquarters (Chenopodium album); settings: amount of applied herbicide 320 g/ha
In short: as §2

velvetleaf = assay: Test Example 5: herbicidal effect by foliage application, plastic box (Table 20, symbol M); assay type: in vivo, velvetleaf (Abutilon theophrasti); settings: foliage application, AAH 320 g/ha, evaluated three weeks after application
In short: as §1

rice flat sedge = assay: Test Example 3: herbicidal effect by foliage application, Wagner pot (Table 18, symbol E); assay type: in vivo, rice flat sedge (Cyperus iria); settings: amount of applied herbicide 320 g/ha
In short: (§4)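 Plants were sown in alluvial soil held under 0.1–0.5 cm standing water and grown 14 days in a greenhouse at 25–30 °C. An emulsifiable formulation, water-diluted to the set dose, was then sprayed onto the foliage, and effects were scored three weeks later using previously defined criteria.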

Japanese bulrush = assay: Test Example 1: herbicidal activity, application before weed generation under submerged conditions (Table 16, symbol B); assay type: in vivo, Japanese bulrush (Schoenoplectus juncoides); settings: 320 g/ha applied herbicide
In short: as §3

Chinese sprangletop = assay: Test Example 3: herbicidal effect by foliage application, Wagner pot (Table 18, symbol D); assay type: in vivo, chinese sprangletop (Leptochloa chinensis); settings: amount of applied herbicide 320 g/ha
In short: as §4

southern crabgrass = assay: Test Example 4: herbicidal effect by soil treatment (Table 19, symbol F); assay type: in vivo, southern crabgrass (Digitaria ciliaris); settings: amount of applied herbicide 320 g/ha
In short: as §2

Italian ryegrass [6] = assay: Test Example 5: herbicidal effect by foliage application, plastic box (Table 20, symbol K); assay type: in vivo, Italian ryegrass (Lolium multiflorum); settings: foliage application, AAH 320 g/ha, evaluated three weeks after application
In short: as §1

Structure (SMILES) | J: blackgrass, herbicidal effect (criteria 0-5) (blackgrass) | G: green foxtail, herbicidal effect (criteria 0-5) (green foxtail) | H: barnyard grass, herbicidal effect (criteria 0-5) (barnyard grass) | herbicidal effect on I: wild oat (wild oat [1]) | Herbicidal effect on A: late watergrass (grade 0-5) (late watergrass [2]) | herbicidal effect on P: chickweed (chickweed) | I: wild oat, herbicidal effect (criteria 0-5) (wild oat [3]) | herbicidal effect on L: windgrass (windgrass) | herbicidal effect on K: Italian ryegrass (Italian ryegrass [4]) | herbicidal effect rating, A: late watergrass (late watergrass [5]) | herbicidal effect on O: lambsquarters (lambsquarters) | M: velvetleaf, herbicidal effect (criteria 0-5) (velvetleaf) | herbicidal effect on E: rice flat sedge (rice flat sedge) | Herbicidal effect on B: Japanese bulrush (grade 0-5) (Japanese bulrush) | herbicidal effect on D: Chinese sprangletop (Chinese sprangletop) | herbicidal effect on F: southern crabgrass (southern crabgrass) | K: Italian ryegrass, herbicidal effect (criteria 0-5) (Italian ryegrass [6])
Cc1nn(C)c(=O)c(-c2c(-c3ccc(OC(F)F)cc3)sc3ccc(F)cc23)c1OC(=S)Sc1ccccc1 [2-298] | 4 (Herbicidal rate of 70% or more and less than 90%) | 5 (Herbicidal rate of 90% or more (almost completely withered)) | 5 (Herbicidal rate of 90% or more (almost completely withered)) | 0 (Herbicidal rate of 5% or less (almost no effect)) | 3 (Herbicidal rate of 40% or more and less than 70%) | 0 (Herbicidal rate of 5% or less (almost no effect)) | 4 (Herbicidal rate of 70% or more and less than 90%) | 0 (Herbicidal rate of 5% or less (almost no effect)) | 0 (Herbicidal rate of 5% or less (almost no effect)) | 3 (Herbicidal rate of 40% or more and less than 70%) | 3 (Herbicidal rate of 40% or more and less than 70%) | 5 (Herbicidal rate of 90% or more (almost completely withered)) | 5 (Herbicidal rate of 90% or more (almost completely withered)) | 3 (Herbicidal rate of 40% or more and less than 70%) | 3 (Herbicidal rate of 40% or more and less than 70%) | 0 (Herbicidal rate of 5% or less (almost no effect)) | 5 (Herbicidal rate of 90% or more (almost completely withered))
Cc1nn(C)c(=O)c(-c2c(-c3ccc(OC(F)F)cc3)sc3ccc(F)cc23)c1OCC(=O)c1ccccc1 [2-305] | 0 (Herbicidal rate of 5% or less (almost no effect)) | 5 (Herbicidal rate of 90% or more (almost completely withered)) | 5 (Herbicidal rate of 90% or more (almost completely withered)) | 0 (Herbicidal rate of 5% or less (almost no effect)) | 3 (Herbicidal rate of 40% or more and less than 70%) | 1 (Herbicidal rate of 5% or more and less than 20%) | 1 (Herbicidal rate of 5% or more and less than 20%) | 0 (Herbicidal rate of 5% or less (almost no effect)) | 0 (Herbicidal rate of 5% or less (almost no effect)) | 3 (Herbicidal rate of 40% or more and less than 70%) | 3 (Herbicidal rate of 40% or more and less than 70%) | 5 (Herbicidal rate of 90% or more (almost completely withered)) | 3 (Herbicidal rate of 40% or more and less than 70%) | 5 (Herbicidal rate of 90% or more (almost completely withered)) | 5 (Herbicidal rate of 90% or more (almost completely withered)) | 0 (Herbicidal rate of 5% or less (almost no effect)) | 4 (Herbicidal rate of 70% or more and less than 90%)
Cc1nn(C)c(=O)c(-c2c(-c3ccc(O)cc3)sc3ccc(F)cc23)c1O [2-337] | 0 (Herbicidal rate of 5% or less (almost no effect)) | 0 (Herbicidal rate of 5% or less (almost no effect)) | 0 (Herbicidal rate of 5% or less (almost no effect)) | 0 (Herbicidal rate of 5% or less (almost no effect)) | 4 (Herbicidal rate of 70% or more and less than 90%) | 3 (Herbicidal rate of 40% or more and less than 70%) | 0 (Herbicidal rate of 5% or less (almost no effect)) | 0 (Herbicidal rate of 5% or less (almost no effect)) | 0 (Herbicidal rate of 5% or less (almost no effect)) | 0 (Herbicidal rate of 5% or less (almost no effect)) | 0 (Herbicidal rate of 5% or less (almost no effect)) | 3 (Herbicidal rate of 40% or more and less than 70%) | 3 (Herbicidal rate of 40% or more and less than 70%) | 3 (Herbicidal rate of 40% or more and less than 70%) | 0 (Herbicidal rate of 5% or less (almost no effect)) | 0 (Herbicidal rate of 5% or less (almost no effect)) | 0 (Herbicidal rate of 5% or less (almost no effect))
